Reference: patent US9145346B1, “Process for 2,2,4,4-tetramethylcyclobutane-1,3-diol crystallization” (Eastman Chemical Company, priority 2014, dated 2015)

Test: Solubility (saturated concentration) of cis-TMCD and trans-TMCD in various solvents, by gas chromatography
Assay type: physicochemical
Description: All concentrations were measured by gas chromatography. Water concentration was measured by Karl Fischer titrations.
The solubility of cis-TMCD and trans-TMCD in various solvents was determined by charging cis-TMCD, trans-TMCD, and the solvent or solvents of interest into a 120 ml jacketed glass vessel. The vessel was equipped with a stir bar in order to provide mixing and the jacket was used to control the temperature of the vessel contents. The vessel was equipped with charging and sampling ports on top of the vessel.
The slurry was allowed to stand for a time sufficient for the solids to saturate the solvent at the desired temperature. At that time, a sample of the solution was withdrawn from the cell using a fritted pipette so as to remove only the liquid phase. The sample was analyzed for cis-TMCD and trans-TMCD isomer content. These values represent the saturated concentration of each isomer at the sampling temperature.
After this, the cell contents were heated to the next desired temperature and the contents were held for another time interval sufficient to allow the slurry to equilibrate. A sample was then taken of the solution and analyzed. Following this procedure, solubility data was collected up to the final desired temperature.
The reported solubility of each isomer at a given temperature for a given solvent is expressed as a weight % relative to the saturated concentration of the isomer at the highest temperature reported for a given solvent.

## CC1(C)[C@H](O)C(C)(C)[C@H]1O [trans-TMCD, trans-2,2,4,4-tetramethylcyclobutane-1,3-diol]
2-Ethylhexanol, 0.7° C., relative to 89.8° C.
  Relative solubility: 11% relative wt %
2-Ethylhexanol, 12.5° C., relative to 89.8° C.
  Relative solubility: 15% relative wt %
2-Ethylhexanol, 24.7° C., relative to 89.8° C.
  Relative solubility: 20% relative wt %
2-Ethylhexanol, 40.0° C., relative to 89.8° C.
  Relative solubility: 28% relative wt %
2-Ethylhexanol, 49.9° C., relative to 89.8° C.
  Relative solubility: 36% relative wt %
2-Ethylhexanol, 60.2° C., relative to 89.8° C.
  Relative solubility: 45% relative wt %
2-Ethylhexanol, 69.3° C., relative to 89.8° C.
  Relative solubility: 57% relative wt %
2-Ethylhexanol, 79.3° C., relative to 89.8° C.
  Relative solubility: 75% relative wt %
2-Ethylhexanol, 89.8° C., relative to 89.8° C.
  Relative solubility: 100% relative wt %
2-Ethylhexyl Acetate, 5.9° C., relative to 79.4° C.
  Relative solubility: 6% relative wt %
2-Ethylhexyl Acetate, 15.5° C., relative to 79.4° C.
  Relative solubility: 9% relative wt %
2-Ethylhexyl Acetate, 25.1° C., relative to 79.4° C.
  Relative solubility: 12% relative wt %
2-Ethylhexyl Acetate, 40.5° C., relative to 79.4° C.
  Relative solubility: 22% relative wt %
2-Ethylhexyl Acetate, 49.8° C., relative to 79.4° C.
  Relative solubility: 32% relative wt %
2-Ethylhexyl Acetate, 49.9° C., relative to 79.4° C.
  Relative solubility: 33% relative wt %
2-Ethylhexyl Acetate, 60.5° C., relative to 79.4° C.
  Relative solubility: 48% relative wt %
2-Ethylhexyl Acetate, 70.3° C., relative to 79.4° C.
  Relative solubility: 74% relative wt %
2-Ethylhexyl Acetate, 79.4° C., relative to 79.4° C.
  Relative solubility: 100% relative wt %
2-Ethylhexyl Acetate, −5.0° C., relative to 79.4° C.
  Relative solubility: 4% relative wt %
CHDM, 69.0° C., relative to 106.9° C.
  Relative solubility: 54% relative wt %
CHDM, 79.2° C., relative to 106.9° C.
  Relative solubility: 74% relative wt %
CHDM, 88.9° C., relative to 106.9° C.
  Relative solubility: 80% relative wt %
CHDM, 95.6° C., relative to 106.9° C.
  Relative solubility: 91% relative wt %
CHDM, 106.9° C., relative to 106.9° C.
  Relative solubility: 100% relative wt %
Dimethyl Carbonate, 6.2° C., relative to 70.1° C.
  Relative solubility: 7% relative wt %
Dimethyl Carbonate, 16.3° C., relative to 70.1° C.
  Relative solubility: 9% relative wt %
Dimethyl Carbonate, 25.7° C., relative to 70.1° C.
  Relative solubility: 14% relative wt %
Dimethyl Carbonate, 40.5° C., relative to 70.1° C.
  Relative solubility: 27% relative wt %
Dimethyl Carbonate, 54.7° C., relative to 70.1° C.
  Relative solubility: 54% relative wt %
Dimethyl Carbonate, 70.1° C., relative to 70.1° C.
  Relative solubility: 100% relative wt %
Ethanol, 5.3° C., relative to 60.3° C.
  Relative solubility: 51% relative wt %
Ethanol, 14.3° C., relative to 60.3° C.
  Relative solubility: 55% relative wt %
Ethanol, 25.5° C., relative to 60.3° C.
  Relative solubility: 76% relative wt %
Ethanol, 39.9° C., relative to 60.3° C.
  Relative solubility: 82% relative wt %
Ethanol, 50.1° C., relative to 60.3° C.
  Relative solubility: 92% relative wt %
Ethanol, 60.3° C., relative to 60.3° C.
  Relative solubility: 100% relative wt %
Ethyl Acetate, 4.2° C., relative to 54.9° C.
  Relative solubility: 16% relative wt %
Ethyl Acetate, 15.0° C., relative to 54.9° C.
  Relative solubility: 25% relative wt %
Ethyl Acetate, 26.2° C., relative to 54.9° C.
  Relative solubility: 38% relative wt %
Ethyl Acetate, 40.5° C., relative to 54.9° C.
  Relative solubility: 62% relative wt %
Ethyl Acetate, 54.9° C., relative to 54.9° C.
  Relative solubility: 100% relative wt %
Ethyl Acetate, −5.1° C., relative to 54.9° C.
  Relative solubility: 12% relative wt %
Ethylene Glycol, 26.5° C., relative to 91.4° C.
  Relative solubility: 24% relative wt %
Ethylene Glycol, 36.2° C., relative to 91.4° C.
  Relative solubility: 32% relative wt %
Ethylene Glycol, 48.5° C., relative to 91.4° C.
  Relative solubility: 44% relative wt %
Ethylene Glycol, 61.5° C., relative to 91.4° C.
  Relative solubility: 61% relative wt %
Ethylene Glycol, 72.1° C., relative to 91.4° C.
  Relative solubility: 68% relative wt %
Ethylene Glycol, 82.2° C., relative to 91.4° C.
  Relative solubility: 82% relative wt %
Methanol, 16.9° C., relative to 41.3° C.
  Relative solubility: 82% relative wt %
Methanol, 25.6° C., relative to 41.3° C.
  Relative solubility: 89% relative wt %
Methanol, 41.3° C., relative to 41.3° C.
  Relative solubility: 100% relative wt %
Methanol, −2.5° C., relative to 41.3° C.
  Relative solubility: 70% relative wt %
Methyl Acetate, 5.9° C., relative to 49.8° C.
  Relative solubility: 14% relative wt %
Methyl Acetate, 15.5° C., relative to 49.8° C.
  Relative solubility: 22% relative wt %
Methyl Acetate, 25.1° C., relative to 49.8° C.
  Relative solubility: 33% relative wt %
Methyl Acetate, 40.5° C., relative to 49.8° C.
  Relative solubility: 59% relative wt %
Methyl Acetate, 49.8° C., relative to 49.8° C.
  Relative solubility: 100% relative wt %
Methyl Acetate, −5.0° C., relative to 49.8° C.
  Relative solubility: 9% relative wt %
Methyl i-Butyl Carbinol, 9.4° C., relative to 81.9° C.
  Relative solubility: 18% relative wt %
Methyl i-Butyl Carbinol, 20.4° C., relative to 81.9° C.
  Relative solubility: 23% relative wt %
Methyl i-Butyl Carbinol, 31.1° C., relative to 81.9° C.
  Relative solubility: 29% relative wt %
Methyl i-Butyl Carbinol, 40.0° C., relative to 81.9° C.
  Relative solubility: 39% relative wt %
Methyl i-Butyl Carbinol, 49.5° C., relative to 81.9° C.
  Relative solubility: 47% relative wt %
Methyl i-Butyl Carbinol, 60.0° C., relative to 81.9° C.
  Relative solubility: 60% relative wt %
Methyl i-Butyl Carbinol, 69.5° C., relative to 81.9° C.
  Relative solubility: 77% relative wt %
Methyl i-Butyl Carbinol, 81.9° C., relative to 81.9° C.
  Relative solubility: 100% relative wt %
i-Butyl Acetate, 4.8° C., relative to 90.1° C.
  Relative solubility: 6% relative wt %
i-Butyl Acetate, 16.9° C., relative to 90.1° C.
  Relative solubility: 9% relative wt %
i-Butyl Acetate, 25.6° C., relative to 90.1° C.
  Relative solubility: 12% relative wt %
i-Butyl Acetate, 41.3° C., relative to 90.1° C.
  Relative solubility: 21% relative wt %
i-Butyl Acetate, 56.2° C., relative to 90.1° C.
  Relative solubility: 36% relative wt %
i-Butyl Acetate, 70.2° C., relative to 90.1° C.
  Relative solubility: 58% relative wt %
i-Butyl Acetate, 90.1° C., relative to 90.1° C.
  Relative solubility: 100% relative wt %
i-Butyl Acetate, −2.5° C., relative to 90.1° C.
  Relative solubility: 5% relative wt %
n-Butanol, 5.9° C., relative to 60.5° C.
  Relative solubility: 44% relative wt %
n-Butanol, 15.5° C., relative to 60.5° C.
  Relative solubility: 49% relative wt %
n-Butanol, 25.1° C., relative to 60.5° C.
  Relative solubility: 58% relative wt %
n-Butanol, 40.5° C., relative to 60.5° C.
  Relative solubility: 72% relative wt %
n-Butanol, 49.8° C., relative to 60.5° C.
  Relative solubility: 86% relative wt %
n-Butanol, 49.9° C., relative to 60.5° C.
  Relative solubility: 86% relative wt %
n-Butanol, 60.5° C., relative to 60.5° C.
  Relative solubility: 100% relative wt %
n-Butanol, −5.0° C., relative to 60.5° C.
  Relative solubility: 39% relative wt %
n-Butyl Propionate, 6.5° C., relative to 91.9° C.
  Relative solubility: 5% relative wt %
n-Butyl Propionate, 16.8° C., relative to 91.9° C.
  Relative solubility: 8% relative wt %
n-Butyl Propionate, 27.7° C., relative to 91.9° C.
  Relative solubility: 13% relative wt %
n-Butyl Propionate, 41.7° C. (sample 4), relative to 91.9° C.
  Relative solubility: 16% relative wt %
n-Butyl Propionate, 41.7° C. (sample 5), relative to 91.9° C.
  Relative solubility: 22% relative wt %
n-Butyl Propionate, 52.0° C., relative to 91.9° C.
  Relative solubility: 32% relative wt %
n-Butyl Propionate, 61.5° C., relative to 91.9° C.
  Relative solubility: 44% relative wt %
n-Butyl Propionate, 69.1° C., relative to 91.9° C.
  Relative solubility: 59% relative wt %
n-Butyl Propionate, 80.7° C., relative to 91.9° C.
  Relative solubility: 78% relative wt %
n-Butyl Propionate, 91.9° C., relative to 91.9° C.
  Relative solubility: 100% relative wt %
n-Propyl Propionate, 7.0° C., relative to 72.2° C.
  Relative solubility: 11% relative wt %
n-Propyl Propionate, 17.1° C., relative to 72.2° C.
  Relative solubility: 15% relative wt %
n-Propyl Propionate, 26.7° C., relative to 72.2° C.
  Relative solubility: 22% relative wt %
n-Propyl Propionate, 37.4° C., relative to 72.2° C.
  Relative solubility: 29% relative wt %
n-Propyl Propionate, 42.4° C., relative to 72.2° C.
  Relative solubility: 37% relative wt %
n-Propyl Propionate, 52.2° C., relative to 72.2° C.
  Relative solubility: 53% relative wt %
n-Propyl Propionate, 62.9° C., relative to 72.2° C.
  Relative solubility: 76% relative wt %
n-Propyl Propionate, 72.2° C., relative to 72.2° C.
  Relative solubility: 100% relative wt %
